Measurements reported in patent US7235379B2, “Method and medium for the detection/identification of microorgranisms with esterase activity” (Bio Merieux, priority 2000, dated 2007).
Counter-ions that a name gives are not always drawn. Like-named read-outs stand apart in the source and are kept apart here.

Key:
[1] = tested on: Salmonella enteritidis 002; assay: Ex.2 colony coloration, 5-bromo-3-indolyl nonanoate, methanol/bile salts, MacConkey; assay type: cell-based
[2] = tested on: Gram-positive bacteria or yeasts
Procedure: The esterase substrate tested is 5-bromo-4-chloro-3-indolyl nonanoate. A 40 g/l stock solution of substrate is prepared in a mixture of 40% dimethyl sulfoxide and 60% Tween 20. A sufficient volume is added to a supercooled MacConkey medium (without neutral red) to give a substrate concentration of 250 mg/l.
(§1) Microorganisms originating from the Applicant's collection were inoculated onto this medium from a 0.5 McFarland suspension by isolation in three quadrants. The dishes were incubated at 37° C. for 48 hours. The colonies formed were examined visually after 24 and 48 hours of incubation. The coloration of these colonies and the intensity of this coloration were noted.

Candida tropicalis 030 = assay: Ex.3 colony coloration, 5-bromo-4-chloro-3-indolyl nonanoate 250 mg/l, DMSO/Tween 20; assay type: cell-based; also: key: 0: no activity; 0.1: trace of coloration; 0.5: very pale coloration; 1: distinct coloration of low intensity; 2: clear coloration of medium intensity; 3: intense coloration; 4: very intense coloration
Escherichia coli 002 = assay: Ex.4 colony coloration, 5-bromo-3-indolyl nonanoate, DMSO/Tween 20, MacConkey; assay type: cell-based; design: key: —: absence of colour or intensity; details: 8 ml/l Tergitol 4
[3] = tested on: Pseudomonas aeruginosa 165; assay: Ex.2 colony coloration, 5-bromo-3-indolyl nonanoate, methanol/bile salts, MacConkey; assay type: cell-based
Serratia marcescens 038 = assay: Ex.1 colony coloration, 5-bromo-3-indolyl nonanoate, DMSO/Tween 20, MacConkey; assay type: cell-based
Procedure: The esterase substrate tested is 5-bromo-3-indolyl nonanoate. A 40 g/l stock solution of substrate is prepared in a mixture of 40% dimethyl sulfoxide and 60% Tween 20. A sufficient volume is added to a supercooled MacConkey medium (without neutral red) to give a substrate concentration of 500 mg/l.

[4] = tested on: Listeria monocytogenes 023; assay: Ex.3 colony coloration, 5-bromo-4-chloro-3-indolyl nonanoate 250 mg/l, DMSO/Tween 20; assay type: cell-based; also: key: 0: no activity; 0.1: trace of coloration; 0.5: very pale coloration; 1: distinct coloration of low intensity; 2: clear coloration of medium intensity; 3: intense coloration; 4: very intense coloration
Candida albicans 033 = assay: as above; assay type: cell-based; also: key: 0: no activity; 0.1: trace of coloration; 0.5: very pale coloration; 1: distinct coloration of low intensity; 2: clear coloration of medium intensity; 3: intense coloration; 4: very intense coloration
Salmonella spp. 017 = tested on: Salmonella spp. 017
Procedure: The esterase substrate tested is 5-bromo-3-indolyl nonanoate. A 25 g/l stock solution of substrate is prepared in methanol to which 5 g/l of bile salts have been added. A sufficient volume is added to a supercooled MacConkey medium (without neutral red) to give a substrate concentration of 500 mg/l.
as §1
Note: In the above Examples, the numbers following the strains correspond to the number of each strain referenced in the Applicant's collection. The intensity of coloration corresponds to an arbitrary scale defined as follows: […]

[5] = tested on: Acinetobacter calcoaceticus 034; assay: Ex.2 colony coloration, 5-bromo-3-indolyl nonanoate, methanol/bile salts, MacConkey; assay type: cell-based
Listeria innocua 029 = assay: Ex.3 colony coloration, 5-bromo-4-chloro-3-indolyl nonanoate 250 mg/l, DMSO/Tween 20; assay type: cell-based; also: key: 0: no activity; 0.1: trace of coloration; 0.5: very pale coloration; 1: distinct coloration of low intensity; 2: clear coloration of medium intensity; 3: intense coloration; 4: very intense coloration

CCCCC(CC)CCC(CC(C)C)OS(=O)(=O)O (stereo not shown) [Tergitol 4, 7-ethyl-2-methyl-4-undecanoate hydrogensulfate or its sodium salt]
—: color (Escherichia coli 002; 24 h) | color (Escherichia coli 002; 48 h)
3.5: intensity of coloration ([3]; 2 ml/l, 24 h) | intensity of coloration ([3]; 2 ml/l, 48 h)
0.5: intensity of coloration ([1]; 8 ml/l, 24 h) | intensity of coloration (Candida tropicalis 030; 1 ml/l (1st col), 24 h) | intensity of coloration (Candida tropicalis 030; 1 ml/l (2nd col), 24 h) | intensity of coloration (Candida albicans 033; 0.001 ml/l, 24 h) | intensity of coloration (Candida albicans 033; 0.01 ml/l, 24 h) | intensity of coloration (Candida albicans 033; 0.1 ml/l, 24 h) | intensity of coloration (Candida albicans 033; 1 ml/l (1st col), 24 h) | intensity of coloration (Candida albicans 033; 1 ml/l (2nd col), 24 h) | intensity of coloration ([5]; 16 ml/l, 24 h) | intensity of coloration ([5]; 16 ml/l, 48 h)
1: intensity of coloration ([1]; 16 ml/l, 48 h) | intensity of coloration (Salmonella spp. 017; 2 ml/l, 24 h) | intensity of coloration (Salmonella spp. 017; 4 ml/l, 24 h) | intensity of coloration (Salmonella spp. 017; 8 ml/l, 24 h) | intensity of coloration (Salmonella spp. 017; 16 ml/l, 24 h)
1.5: intensity of coloration (Salmonella spp. 017; 2 ml/l, 48 h) | intensity of coloration (Salmonella spp. 017; 4 ml/l, 48 h) | intensity of coloration (Salmonella spp. 017; 8 ml/l, 48 h) | intensity of coloration (Salmonella spp. 017; 16 ml/l, 48 h)
cannot develop on a culture medium: growth on culture medium ([2]; excessive Tergitol 4 concentrations)
0.1: intensity of coloration ([1]; 16 ml/l, 24 h) | intensity of coloration (Listeria innocua 029; 0.001 ml/l, 24 h) | intensity of coloration (Listeria innocua 029; 0.01 ml/l, 24 h) | intensity of coloration (Listeria innocua 029; 0.1 ml/l, 24 h) | intensity of coloration (Listeria innocua 029; 1 ml/l (1st col), 24 h) | intensity of coloration (Listeria innocua 029; 1 ml/l (2nd col), 24 h)
2.5: intensity of coloration ([4]; 0.01 ml/l, 24 h)
positive effect: effect on the expression of the esterase activity ([2]; 0.001 to 1 ml/l tested)
4: intensity of coloration ([3]; 4 ml/l, 24 h) | intensity of coloration ([3]; 4 ml/l, 48 h) | intensity of coloration ([3]; 8 ml/l, 24 h) | intensity of coloration ([3]; 8 ml/l, 48 h) | intensity of coloration ([3]; 16 ml/l, 24 h) | intensity of coloration ([3]; 16 ml/l, 48 h) | intensity of coloration (Serratia marcescens 038; 4 ml/l, 48 h) | intensity of coloration (Serratia marcescens 038; 8 ml/l, 48 h) | intensity of coloration (Serratia marcescens 038; 16 ml/l, 48 h) | intensity of coloration ([5]; 8 ml/l, 48 h)
gray: color ([1]; 2 ml/l, 24 h) | color ([1]; 2 ml/l, 48 h) | color ([1]; 4 ml/l, 24 h) | color ([1]; 4 ml/l, 48 h) | color ([1]; 8 ml/l, 24 h) | color ([1]; 8 ml/l, 48 h) | color ([1]; 16 ml/l, 24 h) | color ([1]; 16 ml/l, 48 h) | color ([3]; 2 ml/l, 24 h) | color ([3]; 2 ml/l, 48 h) | color ([3]; 4 ml/l, 24 h) | color ([3]; 4 ml/l, 48 h) | color ([3]; 8 ml/l, 24 h) | color ([3]; 8 ml/l, 48 h) | color ([3]; 16 ml/l, 24 h) | color ([3]; 16 ml/l, 48 h) | color (Serratia marcescens 038; 2 ml/l, 24 h) | color (Serratia marcescens 038; 2 ml/l, 48 h) | color (Serratia marcescens 038; 4 ml/l, 24 h) | color (Serratia marcescens 038; 4 ml/l, 48 h) | color (Serratia marcescens 038; 8 ml/l, 24 h) | color (Serratia marcescens 038; 8 ml/l, 48 h) | color (Serratia marcescens 038; 16 ml/l, 24 h) | color (Serratia marcescens 038; 16 ml/l, 48 h) | color (Salmonella spp. 017; 2 ml/l, 24 h) | color (Salmonella spp. 017; 2 ml/l, 48 h) | color (Salmonella spp. 017; 4 ml/l, 24 h) | color (Salmonella spp. 017; 4 ml/l, 48 h) | color (Salmonella spp. 017; 8 ml/l, 24 h) | color (Salmonella spp. 017; 8 ml/l, 48 h) | color (Salmonella spp. 017; 16 ml/l, 24 h) | color (Salmonella spp. 017; 16 ml/l, 48 h) | color ([5]; 2 ml/l, 24 h) | color ([5]; 2 ml/l, 48 h) | color ([5]; 4 ml/l, 24 h) | color ([5]; 4 ml/l, 48 h) | color ([5]; 8 ml/l, 24 h) | color ([5]; 8 ml/l, 48 h) | color ([5]; 16 ml/l, 24 h) | color ([5]; 16 ml/l, 48 h)
3: intensity of coloration ([1]; 2 ml/l, 48 h) | intensity of coloration ([1]; 4 ml/l, 24 h) | intensity of coloration ([1]; 4 ml/l, 48 h) | intensity of coloration (Candida tropicalis 030; 0.001 ml/l, 48 h) | intensity of coloration (Candida tropicalis 030; 0.01 ml/l, 48 h) | intensity of coloration (Candida tropicalis 030; 0.1 ml/l, 48 h) | intensity of coloration (Candida tropicalis 030; 1 ml/l (1st col), 48 h) | intensity of coloration (Candida tropicalis 030; 1 ml/l (2nd col), 48 h) | intensity of coloration (Serratia marcescens 038; 2 ml/l, 48 h) | intensity of coloration ([4]; 0.01 ml/l, 48 h) | intensity of coloration ([4]; 0.1 ml/l, 48 h) | intensity of coloration ([4]; 1 ml/l (1st col), 48 h) | intensity of coloration ([4]; 1 ml/l (2nd col), 48 h) | intensity of coloration (Candida albicans 033; 0.001 ml/l, 48 h) | intensity of coloration (Candida albicans 033; 0.01 ml/l, 48 h) | intensity of coloration (Candida albicans 033; 0.1 ml/l, 48 h) | intensity of coloration (Candida albicans 033; 1 ml/l (1st col), 48 h) | intensity of coloration (Candida albicans 033; 1 ml/l (2nd col), 48 h) | intensity of coloration ([5]; 2 ml/l, 48 h) | intensity of coloration ([5]; 4 ml/l, 24 h) | intensity of coloration ([5]; 4 ml/l, 48 h) | intensity of coloration ([5]; 8 ml/l, 24 h)
2: intensity of coloration ([1]; 2 ml/l, 24 h) | intensity of coloration ([1]; 8 ml/l, 48 h) | intensity of coloration (Candida tropicalis 030; 0.001 ml/l, 24 h) | intensity of coloration (Candida tropicalis 030; 0.01 ml/l, 24 h) | intensity of coloration (Candida tropicalis 030; 0.1 ml/l, 24 h) | intensity of coloration (Serratia marcescens 038; 2 ml/l, 24 h) | intensity of coloration (Serratia marcescens 038; 4 ml/l, 24 h) | intensity of coloration (Serratia marcescens 038; 8 ml/l, 24 h) | intensity of coloration (Serratia marcescens 038; 16 ml/l, 24 h) | intensity of coloration ([4]; 0.001 ml/l, 24 h) | intensity of coloration ([4]; 0.001 ml/l, 48 h) | intensity of coloration ([4]; 0.1 ml/l, 24 h) | intensity of coloration ([4]; 1 ml/l (1st col), 24 h) | intensity of coloration ([4]; 1 ml/l (2nd col), 24 h) | intensity of coloration ([5]; 2 ml/l, 24 h) | intensity of coloration (Listeria innocua 029; 0.001 ml/l, 48 h) | intensity of coloration (Listeria innocua 029; 0.01 ml/l, 48 h) | intensity of coloration (Listeria innocua 029; 0.1 ml/l, 48 h) | intensity of coloration (Listeria innocua 029; 1 ml/l (1st col), 48 h) | intensity of coloration (Listeria innocua 029; 1 ml/l (2nd col), 48 h)
